Patent US9884859B2, “Solid form of pyrazolopyridine compound” (SUNSHINE LAKE PHARMA CO., LTD., priority 2013, dated 2018)

Tests used:
[1] = Hygroscopicity test (Chinese Pharmacopoeia 2010, weight gain by sorption); type: physicochemical; conditions: 25° C.±1° C., about 24 h; for Result (hygroscopic properties): cell wraps: 'Low hygroscopic'; for Weight gain by absorption (%): constant humidity (saturated ammonium chloride or ammonium sulfate)
Procedure: Hygroscopicity Test of Crystalline Form I and Form III of the Compound of Formula (I) 1 Instrument and Regents 1.1 Instrument: 1/100000 Scale, XP205DR 1.2 Test Method According to “Chinese Pharmacopoeia”2010 edition, proportion II, XI X J. 1) Keep a dry glass weighing bottle with stopper (external diameter: 50 mm, height: 15 mm) in 25° C.±1° C. of thermostatic drier with saturated solution of ammonium chloride or ammonium sulfate placing on the bottom, precisely weighed (m1). 2) An appropriate amount of sample was spread in the weighing bottle by a millimeter thick, precisely weighed (m2). 3) An open weighing bottle and lid were kept together in environment of constant temperature and humidity for about 24 h.

[2] = Stability (acceleration) test of crystalline forms, purity by HPLC; type: physicochemical; conditions: for change of appearance, related substance and crystalline form: 30 days; for Overall impurity (%) / impurity A (%) / impurity B (%) / purity (%): HPLC; for appearance: cell wraps ('powder' on next line)
[3] = day 0, cell wraps: shows characteristic peaks of the crystalline form
[4] = day 30, 40° C.±2° C./75% RH±5%, Yes = shows characteristic peaks of the crystalline form

COC(=O)N(C)c1c(N)nc(-c2nn(Cc3ccccc3F)c3ncccc23)nc1N [crystalline form I, methyl {4,6-diamino-2-[1-(2-fluorobenzyl)-1H-pyrazolo[3,4-B]pyridine-3-yl]pyrimidine-5-yl}N-methylcarbamate]
Result (hygroscopic properties) [1]: Low
Weight gain by absorption (%) [1]: 0.1%
stability ([2]; 40° C.±2° C./75% RH±5%): stable for a month
change of appearance, related substance and crystalline form ([2]; 40° C.±2° C./75% RH±5%): did not change
Overall impurity (%) ([2]; day 0, 40° C.±2° C./75% RH±5%): 0.44%
impurity A (%) ([2]; day 0, 40° C.±2° C./75% RH±5%): 0.06%
impurity B (%) ([2]; day 0, 40° C.±2° C./75% RH±5%): 0.26%
purity (%) ([2]; day 0, 40° C.±2° C./75% RH±5%): 99.6%
appearance ([2]; day 0, 40° C.±2° C./75% RH±5%): Off-white
DSC [2, 3]: Shows
XRD [2, 3]: Shows
Overall impurity (%) ([2]; day 30, 40° C.±2° C./75% RH±5%): 0.43%
impurity A (%) ([2]; day 30, 40° C.±2° C./75% RH±5%): 0.06%
impurity B (%) ([2]; day 30, 40° C.±2° C./75% RH±5%): 0.26%
purity (%) ([2]; day 30, 40° C.±2° C./75% RH±5%): 99.6%
DSC [2, 4]: Yes
XRD [2, 4]: Yes
appearance ([2]; day 30, 40° C.±2° C./75% RH±5%): Off-white

COC(=O)N(C)c1c(N)nc(-c2nn(Cc3ccccc3F)c3ncccc23)nc1N [crystalline form III, methyl {4,6-diamino-2-[1-(2-fluorobenzyl)-1H-pyrazolo[3,4-B]pyridine-3-yl]pyrimidine-5-yl}N-methylcarbamate]
Result (hygroscopic properties) [1]: Low
Weight gain by absorption (%) [1]: 0.04%
stability ([2]; 40° C.±2° C./75% RH±5%): stable for a month
change of appearance, related substance and crystalline form ([2]; 40° C.±2° C./75% RH±5%): did not change
Overall impurity (%) ([2]; day 0, 40° C.±2° C./75% RH±5%): 0.65%
impurity A (%) ([2]; day 0, 40° C.±2° C./75% RH±5%): 0.05%
impurity B (%) ([2]; day 0, 40° C.±2° C./75% RH±5%): 0.35%
purity (%) ([2]; day 0, 40° C.±2° C./75% RH±5%): 99.4%
appearance ([2]; day 0, 40° C.±2° C./75% RH±5%): pale yellow
DSC [2, 3]: Show
XRD [2, 3]: Show
Overall impurity (%) ([2]; day 30, 40° C.±2° C./75% RH±5%): 0.57%
impurity A (%) ([2]; day 30, 40° C.±2° C./75% RH±5%): 0.04%
impurity B (%) ([2]; day 30, 40° C.±2° C./75% RH±5%): 0.34%
purity (%) ([2]; day 30, 40° C.±2° C./75% RH±5%): 99.4%
DSC [2, 4]: Yes
XRD [2, 4]: Yes
appearance ([2]; day 30, 40° C.±2° C./75% RH±5%): pale yellow
